Measured values as given in PMC6921407, “Novel coumarins active against Trypanosoma cruzi and toxicity assessment using the animal model Caenorhabditis elegans” (BMC Pharmacology & Toxicology, 2019).
Read-outs that look alike come from different tables or passages of the source.

Key:
[1] = test system: Trypanosoma cruzi epimastigotes (Tulahuen 2 strain); experiment: Anti-Trypanosoma cruzi activity: growth inhibition of epimastigotes (absorbance at 600 nm, day 5); type: cell-based; conditions: T. cruzi epimastigotes; for GI (%) / percentage of growth inhibition (PGI): test concentration not given
Experimental: Trypanosoma cruzi epimastigotes (Tulahuen 2 strain) were grown at 28 °C in an axenic milieu (BHI-Tryptose) supplemented with 5% fetal bovine serum (FBS), as previously described. Cells from a 10-day-old culture (stationary phase) were inoculated into 50 mL of fresh culture milieu to give an initial concentration of 1 × 10^6 cells per mL. Cell growth was followed by measuring the absorbance of the culture at 600 nm every day. Before inoculation, the milieu was supplemented with a given amount of the coumarin from a freshly prepared stock solution in DMSO (25 mM). The final concentration of DMSO in the culture medium never exceeded 0.4%, and the control was run in the presence of 0.4% DMSO and in the absence of drugs. […] Nifurtimox (Nfx) was used as the reference trypanocidal drug. The percentage of growth inhibition (PGI) was calculated as follows: PGI (%) = {1 - [(Ap - A0p) / (Ac - A0c)]} × 100, where Ap = […] of the culture containing the studied compound at day 5; […] = […] of the culture containing the studied compound just after addition of the inocula (day 0); Ac = […] of the culture in the absence of the studied compound (control) at day 5; […] = […] in the absence of the studied compound at day 0. […] At day 5, the absorbance of the culture was measured and related to the control.

[2] = Trypanosoma cruzi, TULAHUEN, 120 h, read-out: IC50

| SMILES | GI (%) / percentage of growth inhibition (PGI) [1] | IC50 [1, 2] | melting point | IC50 [1] | IC50 ([1]; read-out: IC50) |
| --- | --- | --- | --- | --- | --- |
| COc1ccc(NCc2cc(=O)oc3ccc(Cl)cc23)cc1 [9e] | < 29.3% | > 100 µM | 192 to 194 °C |  |  |
| O=c1cc(CN2CCSCC2)c2cc(Cl)ccc2o1 [9l] | 29 ± 0.4% | > 100 µM | 152 to 153 °C |  |  |
| CCc1ccc2oc(=O)cc(CN3CCNCC3)c2c1 [11j] | Inactive |  | > 300 °C | Inactive |  |
| CCc1ccc2oc(=O)cc(CN3CCOCC3)c2c1 [11k] | 57.6 ± 3.4% | 22.7 ± 3.1 µM | 110 to 113 °C |  |  |
| CCc1ccc2oc(=O)cc(CN3CCSCC3)c2c1 [11l] | 72.9 ± 0.4% | > 10 µM | 134 to 135 °C |  |  |
| CCc1ccc2oc(=O)cc(CNc3ccc(Br)cc3)c2c1 [11d] | < 21.9% | 35.4 ± 2.1 µM | 184 to 186 °C |  |  |
| O=c1cc(CN2CCS(=O)(=O)CC2)c2cc(Cl)ccc2o1 [9m] | < 59.9% | > 25 µM | 162 to 164 °C |  |  |
| Cc1ccc(NCc2cc(=O)oc3ccc(C)cc23)cc1 [10b] | 29.9 ± 0.9% | > 100 µM | 188 to 189 °C |  |  |
| CCc1ccc2oc(=O)cc(CNc3ccc(OC)cc3)c2c1 [11e] | < 52.5% | > 25 µM | 151 to 152 °C |  |  |
| O=c1cc(CN2CCCCC2)c2cc(Cl)ccc2o1 [9i] | 15.9 ± 0.9% | > 100 µM | 181 to 182 °C |  |  |
| Cc1ccc2oc(=O)cc(CN3CCOCC3)c2c1 [10k] | Inactive |  | 99 to 100 °C | Inactive |  |
| Cc1ccc2oc(=O)cc(CNc3ccccc3)c2c1 [10a] | 38.5 ± 2.6% | > 100 µM | 164 to 165 °C |  |  |
| CC1CS(=O)(=O)CCN1/N=C/c1ccc([N+](=O)[O-])o1 (centres unmarked) [Nifurtimox, reference compound] |  | 5 ± 1 µM |  |  |  |
| O=c1cc(CN2CCC(c3ccccc3)CC2)c2cc(Cl)ccc2o1 [9n] | < 51.5% | > 25 µM | 163 to 164 °C |  |  |
| CCc1ccc2oc(=O)cc(CN3CCCCC3)c2c1 [11i] | < 71.4% | 13.9 ± 2.8 µM | 96 to 98 °C |  |  |
| CN(Cc1cc(=O)oc2ccc(Cl)cc12)c1ccc(Cl)cc1 [9h] | < 48.4% | > 25 µM | 185 to 186 °C |  |  |
| Cc1ccc2oc(=O)cc(CN3CCNCC3)c2c1 [10j] | Inactive |  | > 300 °C | Inactive |  |
| O=c1cc(CNc2ccccc2)c2cc(Cl)ccc2o1 [9a] |  | 9.1 ± 1.6 µM | 187 to 188 °C |  | < 10 µM |
| COc1ccc(NCc2cc(=O)oc3ccc(C)cc23)cc1 [10e] | 53.2 ± 1.3% | > 25 µM | 169 to 170 °C |  |  |
| Cc1cc(C)cc(NCc2cc(=O)oc3ccc(C)cc23)c1 [10f] | 32.5 ± 0.9% | > 100 µM | 179 to 180 °C |  |  |

| SMILES | GI (%) / percentage of growth inhibition (PGI) [1] | IC50 [1, 2] | melting point | IC50 [1] | IC50 ([1]; read-out: IC50) |
| --- | --- | --- | --- | --- | --- |
| O=c1cc(CN2CCOCC2)c2cc(Cl)ccc2o1 [9k] | < 9.6% | > 100 µM | 177 to 178 °C |  |  |
| O=c1cc(CNc2ccc(Cl)cc2)c2cc(Cl)ccc2o1 [9c] | < 20.4% | > 100 µM | 205 to 207 °C |  |  |
| O=c1cc(CNc2ccc(Br)cc2)c2cc(Cl)ccc2o1 [9d] | 1.9 ± 0.8% | > 100 µM | 231 to 232 °C |  |  |
| CCc1ccc2oc(=O)cc(CN3CCS(=O)(=O)CC3)c2c1 [11m] | < 10.2% | > 100 µM | 175 to 177 °C |  |  |
| CCc1ccc2oc(=O)cc(CNc3ccccc3)c2c1 [11a] | 35.7 ± 0.7% | 27.7 ± 1.3 µM | 91 to 93 °C |  |  |
| CCc1ccc2oc(=O)cc(CNc3ccc(C)cc3)c2c1 [11b] | < 39.5% | > 25 µM | 171 to 172 °C |  |  |
| CCc1ccc2oc(=O)cc(CN3CCC(c4ccccc4)CC3)c2c1 [11n] | 26.7 ± 4.0% | 30.3 ± 0.9 µM | 118 to 120 °C |  |  |
| Cc1ccc2oc(=O)cc(CN(C)c3ccc(Cl)cc3)c2c1 [10h] | < 59.2% | > 25 µM | 173 to 174 °C |  |  |
| CCc1ccc2oc(=O)cc(CNc3ccc(Cl)cc3)c2c1 [11c] | 67.6 ± 2.7% | 11.2 ± 1.7 µM | 171 to 173 °C |  |  |
| Cc1cc(C)cc(NCc2cc(=O)oc3ccc(Cl)cc23)c1 [9f] | 6.1 ± 1.3% | > 100 µM | 192 to 194 °C |  |  |
| Cc1ccc2oc(=O)cc(CN3CCSCC3)c2c1 [10l] | Inactive |  | 121 to 122 °C | Inactive |  |
| Cc1ccc2oc(=O)cc(CN3CCS(=O)(=O)CC3)c2c1 [10m] | Inactive |  | 170 to 172 °C | Inactive |  |
| O=c1cc(CN2CCNCC2)c2cc(Cl)ccc2o1 [9j] | < 23.6% | > 31 µM | > 300 °C |  |  |
| Cc1ccc2oc(=O)cc(CNc3ccc(Br)cc3)c2c1 [10d] | < 33.1% | > 100 µM | 178 to 179 °C |  |  |
| Cc1ccc2oc(=O)cc(CNc3ccc(Cl)cc3)c2c1 [10c] | 18.5 ± 1.8% | > 100 µM | 180 to 181 °C |  |  |
| CCc1ccc2oc(=O)cc(CNc3cc(C)cc(C)c3)c2c1 [11f] | < 44.3% | > 25 µM | 176 to 178 °C |  |  |
| Cc1ccc2oc(=O)cc(CN3CCC(c4ccccc4)CC3)c2c1 [10n] | < 62.7% | 13.2 ± 2.6 µM | 106 to 107 °C |  |  |
| CN(Cc1cc(=O)oc2ccc(Cl)cc12)c1ccccc1 [9g] |  | 14.2 ± 1.9 µM | 200 to 201 °C |  |  |
| Cc1ccc2oc(=O)cc(CN3CCCCC3)c2c1 [10i] | < 15.9% | > 100 µM |  |  |  |
| Cc1ccc(NCc2cc(=O)oc3ccc(Cl)cc23)cc1 [9b] | < 20.7% | > 100 µM | 201 °C |  |  |
